Data taken from PubChem BioAssay AID1645848.
≈ marks a conversion by molar mass, not a printed value.

Conditions: buffer; pH 7.4; 6.0 h; 150.0 µM

| Compound | solubility kinetic [µg/mL] |
| --- | --- |
| Cc1cccc(CNc2ccc(S(=O)(=O)Nc3nccs3)cc2)c1O | > 55 |
| COc1ccc(-c2nc3ncccc3[nH]2)cc1 | > 67 |
| CN(Cc1ccc(/C=C/C(=O)NO)cc1)CC12CC3CC(CC(C3)C1)C2 | > 35 |
| Cc1ccc(-c2[nH]n3c(=O)c4c(nc3c2C)CCCC4)cc1 | 1.03 (≈ 3.52 µM) |
| O=[S+]([O-])(Nc1ccc(-c2ccccc2)cc1)c1ccc(NCc2ccc(Cl)cc2O)cc1 | < 1 |
| CN[C@@H]1C[C@@H](c2ccc(Cl)c(Cl)c2)c2ccccc21 | > 43 |
| CCOc1ccc(CCNC(=O)c2cc3ccncc3n2Cc2cccc(C)n2)cc1OCC | > 68 |
| Nc1cc(-c2nc(Nc3ccc(F)c(F)c3)c3ccccc3n2)ccn1 | < 1 |
| CC(=O)c1cccc(-c2csc3ncnc(Sc4nnnn4C)c23)c1 | 14.1 (≈ 38.2 µM) |
| O=C(Nc1cncc(Cc2ccccc2)c1)c1ccc(-c2cccc([N+](=O)[O-])c2)o1 | < 1 |
| O=C(Nc1ncc(Cc2ccc(C(F)(F)F)cc2)s1)c1ccc(-c2ccccc2[N+](=O)[O-])o1 | < 1 |
| Cc1ccc(S(=O)(=O)Nc2cccc(C(=O)Nc3nc(-c4ccccc4)cs3)c2)cc1 | < 1 |
| COc1ccc(NC(=O)c2[nH]c(C)c(C(C)=O)c2C)cc1[S+](=O)([O-])Nc1ccccc1C#N | 55.6 (≈ 119 µM) |
| Oc1ccccc1CN1CCNc2cc(Nc3ccccc3)ncc2C1 | 24.3 (≈ 70.1 µM) |
| O=c1[nH]nc(Sc2ncc([N+](=O)[O-])s2)n1-c1ccc2c(c1)OCCO2 | 28.7 (≈ 75.6 µM) |
| Cc1nn2c(c1-c1ccccc1-c1ccccc1)N(CCC(C)C)CCC2 | < 1 |
| CC(C)(C)C(=O)N1CCN(c2nccc(Nc3ccccc3Cl)n2)CC1 | 26.3 (≈ 70.3 µM) |
| NC[C@H](O)c1ccc(O)c(O)c1 | > 25 |
| O=[N+]([O-])c1cccc(CNc2ccc(S(=O)(=O)Nc3nccs3)cc2)c1O | 10.3 (≈ 25.2 µM) |
| COC(=O)Nc1nc2ccc(Sc3ccccc3)cc2[nH]1 | < 1 |
| CN(C)CCNC(=O)c1nc2nc(-c3ccccc3)c(-c3cccc(F)c3)cc2n1C | 51.3 (≈ 123 µM) |
| Cc1ccc(OCCn2c(CCNC(=O)N3CCCCC3)nc3ccccc32)cc1 | 9.07 (≈ 22.3 µM) |
| Cc1ccnc(NC(=S)N2CCN(c3ncc(C(F)(F)F)cc3Cl)CC2)c1 | 12 (≈ 29 µM) |
| Cc1ccc(-c2cc(C(=O)Nc3ccc(S(=O)(=O)NCc4nccs4)cc3)c3ccccc3n2)cc1C | 1.66 (≈ 3.14 µM) |
| CC(C)Oc1cccc(C2CC(=O)Nc3cc4c(cc32)OCO4)c1 (configuration not stated) | 1.53 (≈ 4.7 µM) |

| Compound | solubility kinetic [µg/mL] |
| --- | --- |
| O=C(NCCCN1CCCC1=O)c1ccc(-c2ncc3cnc(-c4ccccc4)cn23)cc1 | 21.9 (≈ 49.9 µM) |
| COc1ccc(-c2noc(CSc3nnc(Cc4ccccc4)n3-c3ccc(F)cc3)n2)cc1 | < 1 |
| CCOC(=O)c1c(NC(=O)CN2CCCCC2)sc2c1CCN(C(=O)OCC)C2 | 27.6 (≈ 65.2 µM) |
| O=C(CCCN1CCC(O)(c2ccc(Cl)cc2)CC1)c1ccc(F)cc1 | 6.42 (≈ 17.1 µM) |
| CSc1ncc(Cl)c(C(=O)Nc2c(C)cccc2C)n1 | 1.91 (≈ 6.19 µM) |
| CC1=C[C@@H](CNC(C)C)[C@H](C(C)C)C[C@H]1Cc1nnc(-c2ccncc2)o1 | > 54 |
| COc1cccc(-c2nc3cc(NC(=O)c4ccc(C)c([N+](=O)[O-])c4)ccc3o2)c1 | < 1 |
| CNC(=O)c1nn(C)c2c1C(C)(C)Cc1cnc(Nc3ccc(N4CCN(C)CC4)cc3)nc1-2 | > 68 |
| Oc1ccc(CNc2cccc(F)c2)c2cccnc12 | < 1 |
| Cc1noc([C@@H]2CN(C(=O)c3nn(C)c4ccccc34)C[C@H]2CO)n1 | > 100 |
| CCOC(=O)C1(Cc2ccccc2C(F)(F)F)CCN(C2CCN(C(C)C)CC2)CC1 | 55 (≈ 125 µM) |
| Cc1ccc(S(=O)(=O)Nc2ccccc2N2CCCCC2)cc1 | < 1 |
| c1ccc(-c2csc3ncnc(Sc4nnn(-c5ccccc5)n4)c23)cc1 | < 1 |
| COc1cccc(-c2csc(NC(=O)c3ccncc3NS(=O)(=O)c3ccc(C)cc3)n2)c1 | > 71 |
| COc1cccc(NC(=S)N2CCN(c3cccc(C(F)(F)F)c3)CC2)n1 | 0.435 (≈ 1.1 µM) |
| Cc1cc(-c2cc3c(nc2-c2ccccc2)nc(C(=O)NCCN(C)C)n3C)ccn1 | 54.5 (≈ 132 µM) |
| Cc1ccc([S+](=O)([O-])n2cc(-c3ccc(-c4ccccc4)cc3)c3ccccc32)cc1 | < 1 |
| COc1cc2nc(N3CCCC3)nc(NCCCCCN3CCCC3)c2cc1OC | > 61 |
| CC(C)(N)C(=O)N[C@H](COCc1ccccc1)C(=O)N1CCC2(CC1)CN(S(C)(=O)=O)c1ccccc12 | > 78 |
| Cc1cn2nc(-c3nc(C4CCCN(C(=O)c5ccccc5)C4)no3)cc2c(=O)[nH]1 (configuration not stated) | 27.5 (≈ 68 µM) |
| COc1ccc(-n2nc(C3CCN([S+](=O)([O-])c4c(C)noc4C)CC3)[nH]c2=O)cc1 | < 1 |
| O=C(c1ccccc1)N1CCC(c2nn(-c3ccc(F)cc3)c(=O)[nH]2)CC1 | > 54 |
| CC(=O)c1c(C)[nH]c(C(=O)Nc2cccc([S+](=O)([O-])Nc3cccnc3)c2)c1C | > 61 |
| COc1cccc(C(=O)Nc2ccc3oc(-c4ccc5ccccc5c4)nc3c2)c1 | < 1 |
| O=C(NCCCc1ccccc1)c1cccc(-c2cc(O)c3ncccc3c2)c1 | < 1 |

| Compound | solubility kinetic [µg/mL] |
| --- | --- |
| COc1cc(-c2nc(Nc3ccc(F)c(F)c3)c3ccccc3n2)cc(OC)n1 | < 1 |
| CCn1c(SCc2ccc(C#N)cc2)nnc1-c1cccc(Cl)c1 | 34.2 (≈ 96.3 µM) |
| COc1cccc(CNc2ccc(S(=O)(=O)Nc3ccc(C)nc3)cc2)c1O | 16.5 (≈ 41.2 µM) |
| NC1CCC(Nc2nc(Nc3ccc(C(=O)N4CCCCC4)cc3)c3ncn(-c4cccc(F)c4)c3n2)CC1 (configuration not stated) | 57.5 (≈ 109 µM) |
| O=C(NC1CCCc2c1cnn2-c1ccc(F)cc1F)c1ccccc1 (configuration not stated) | 4.29 (≈ 12.1 µM) |
| COCCN1CCNc2nc(COc3ccc(C(C)C)cc3)n(Cc3ccccc3)c2C1=O | < 1 |
| Fc1cc(-c2nc(Nc3ccc(F)c(F)c3)c3ccccc3n2)ccn1 | < 1 |
| Fc1cnc(-c2ccccc2C(F)F)nc1NCC1CCN(c2cnccn2)CC1 | < 1 |
| Cc1cc(-c2nnc3n2CCCCC3)c(C)n1-c1ccccc1 | > 45 |
| CN(C)CCCN1c2ccc(O)cc2Sc2ccc(Cl)cc21 | > 49 |
| Cc1ccccc1S(=O)(=O)N1CCCC(CCC(=O)NCCN(C)C2CCCCC2)C1 (configuration not stated) | 11.7 (≈ 26 µM) |
| CC[C@H]1/C=C\C=C/C[C@@H](C)[C@H](O)[C@@](C)(O)C(=O)[C@@H](C)[C@H](O)[C@@H](C)C(=O)[C@@H](C)[C@H](O)[C@@H](C)/C=C\C(=O)O[C@@H]2[C@H](C)[C@H](CC1)O[C@]1(CC[C@H](C)[C@H](C[C@@H](C)O)O1)[C@H]2C | < 1 |
| Cc1nc2ccc(NC(=O)c3cc(S(=O)(=O)N(C)c4ccccc4)ccc3Cl)cc2s1 | < 1 |
| Cc1nc(N)nc2ccccc12 | > 24 |
| COc1ccccc1-c1nnc2sc(-c3ccc(N(C)C)cc3)nn12 | 1.04 (≈ 2.96 µM) |
| CCCCC(C)/C=C(C)/C=C(\C)C(=O)NC1=CC(O)(/C=C/C=C/C=C/C(=O)NC2=C(O)CCC2=O)C2OC2C1=O (configuration not stated) | > 81 |
| COc1ccccc1N1CCN(CCN(C(=O)c2ccc(F)cc2)c2ccccn2)CC1 | > 64 |
| O=S(=O)(Nc1nccs1)c1ccc(NCc2ccccc2O)cc1 | > 53 |
| CC[C@@H](CO)NC(=O)[C@@H]1C=C2c3cccc4c3c(cn4C)C[C@H]2N(C)C1 | > 52 |
| Fc1ccc(Nc2nc(-c3ccncc3)cc3ccccc23)cc1F | 1.26 (≈ 3.79 µM) |
| c1ccc(Nc2cc3c(cn2)CN(Cc2cccs2)CCN3)cc1 | 42.8 (≈ 127 µM) |
| COc1cc(Nc2nc(-c3ccncc3)nc3ccccc23)ccc1NS(C)(=O)=O | < 1 |
| NS(=O)(=O)c1ccc(NC(=O)c2cc3ncccn3n2)cc1 | 5.17 (≈ 16.3 µM) |
| COc1ccc2c(c1)/C(=C/c1cnc[nH]1)C(=O)N2 | > 36 |
| CN(C)CCNC(=O)c1nc(-c2ccccc2)cc2[nH]ccc12 | 28.3 (≈ 91.9 µM) |

| Compound | solubility kinetic [µg/mL] |
| --- | --- |
| CC1CCc2cc(F)ccc2N1C(=O)CSc1nnc2c(n1)[nH]c1ccccc12 (configuration not stated) | < 1 |
| Cn1cncc1[C@@](N)(c1ccc(Cl)cc1)c1ccc2c(c1)c(-c1cccc(Cl)c1)cc(=O)n2C | < 1 |
| COc1ccc(-n2c(C)cc(-c3nnc4n3CCCCC4)c2C)cc1 | 31.9 (≈ 94.8 µM) |
| Nc1c(C(=O)Nc2ccc(F)cc2)sc2nc(-c3cccs3)cc(C(F)(F)F)c12 | < 1 |
| Fc1ccc(CN2CCNc3cc(Nc4ccccc4)ncc3C2)cc1F | 45.3 (≈ 124 µM) |
| Cc1ccc(S(=O)(=O)Nc2ccccc2C(=O)Nc2nc(-c3ccc(Cl)cc3)cs2)cc1 | 7.04 (≈ 14.6 µM) |
| O=C(Nc1ccc(N2CCC(N3CCCCC3)CC2)c(C(=O)O)c1)c1ccc(Br)cc1 | 34 (≈ 69.9 µM) |
| COc1cc(C2c3c(oc4cc(C)c(C)cc4c3=O)C(=O)N2CCCN2CCOCC2)ccc1O (configuration not stated) | > 71 |
| Cc1ccc(S(=O)(=O)Nc2cnccc2C(=O)Nc2nc(-c3ccc4c(c3)CCCC4)cs2)cc1 | < 1 |
| O=C1NC(=O)C(c2cnc3ccccn23)=C1c1cn2c3c(cccc13)CN(C(=O)N1CCOCC1)CC2 | > 73 |
| O=C(Nc1ccccc1)C1CCN(c2nc(-c3ccc(Br)cc3)cs2)CC1 | 5.11 (≈ 11.5 µM) |
| Cn1nnnc1Sc1ncnc2scc(-c3cccc(S(C)(=O)=O)c3)c12 | 44.8 (≈ 111 µM) |
| CC1=C(C(=O)Nc2nccs2)C(c2ccccc2Br)N=C(Nc2nc3ccccc3o2)N1 (configuration not stated) | < 1 |
| Cc1cc(C)c(CNC(=O)c2nc(-c3ccc(CN(C)C)cc3)cc3c2ccn3C(C)C)c(=O)[nH]1 | 40.3 (≈ 85.4 µM) |
| Cc1ccc(S(=O)(=O)Nc2cnccc2C(=O)Nc2ccc(C#N)cc2)cc1 | > 58 |
| CCn1c(-c2nonc2N)nc2cnc(Oc3cccc(NC(=O)c4ccc(OCCN5CCOCC5)cc4)c3)cc21 | < 1 |
| COc1cccc(-c2csc(N3CCC(C(N)=O)CC3)n2)c1 | > 47 |
| COc1ccc(CN(C2CCCCC2C)S(=O)(=O)c2ccc(S(=O)(=O)N(C)C)cc2)cc1OC (configuration not stated) | < 1 |
| CCOc1ccc(CCNC(=O)c2cc3ccncc3n2Cc2cccc(C)c2)cc1OCC | 55.7 (≈ 122 µM) |
| COc1ccc(C2Nc3ccccc3C(=O)N2Cc2cccnc2)cc1COc1c(C)cc(NC(C)=O)cc1C (configuration not stated) | 1.69 (≈ 3.16 µM) |
| Cc1ccc(S(=O)(=O)Nc2cnccc2C(=O)Nc2nc(-c3cc4ccccc4o3)cs2)cc1 | 0.521 (≈ 1.06 µM) |
| Cc1ccc(S(=O)(=O)Nc2ccc(Cl)cc2C(=O)Nc2nc(-c3ccccc3)cs2)cc1 | < 1 |
